Measurements as given in patent US20050070719A1, “Inhibitors of dipeptidyl peptidase iv” (priority 2001, published 2005).
Counter-ions that a name gives are not always drawn.

Key:
DPP IV = molecular target: T1, DPP IV (Rattus norvegicus, UniProt P14740); experiment: Measuring DPP IV inhibition (rat plasma, fluorogenic peptide substrate); type: biochemical; settings: substrate H-Gly-Pro-alpha methyl coumarin, 30 min, room temp
T1 construct: Add 25 uL of rat plasma or buffer to wells; from tissue; host or cells: rat plasma
Procedure: Dilute 1 volume of rat plasma ([…] with sodium citrate) to 2.5 volumes assay buffer (25 mM HEPES, 140 mM NaCl, 1% BSA [added on the day of the assay]; pH 7.8) to yield approximately 350 micrograms total protein/well in a 96-well plate. […] Dilute the peptide substrate (H-Gly-Pro-alpha methyl coumarin, 10 mM stock in 100% DMSO) 1:100 in assay buffer. Compounds of this invention are diluted in 100% DMSO. Add 10 microliter of diluted compounds or DMSO vehicle to wells. Add 25 uL of rat plasma or buffer to wells. Add 25 uL MgCl2 to all wells. Vortex gently for 1 minute, then pre-incubate at room temp for 10 minutes. Start the reaction by adding 50 uL peptide substrate (no vortexing), and incubate the plate at room temp in the dark for 30 minutes. […] Read the plate at 380 nm (excitation) and 460 nm (emission).

[1] = tested on: MPTP-lesioned mouse model of Parkinson's disease; experiment: In vivo reinnervation of the denervated striatum by nigrostriatal dopaminergic fibers (MPTP-lesioned mouse model of Parkinson's disease); settings: CD1 mice, MPTP 34 mg/kg i.p. days 1-5; compound 10 mg/kg s.c. once daily days 1-5; analysis day 7
Text: MPTP (N-methyl-4-phenyl-1,2,3,6-tetrahydropyridine) is a systemically available neurotoxin specific to nigrostriatal dopaminergic neurons, i.e. to the cells that degenerate in human Parkinson's disease. Administration of MPTP to mice leads to a selective partial destruction of the mesotelencephalic dopaminergic projection, and to a loss of dopamine and dopaminergic fibres in the corpus striatum, which is the main forebrain target of midbrain dopaninergic neurons.
Young adult male CD1 albino mice (Harlan-Sprague Dawley; 22-25 g) were dosed i.p. with the dopamine cell-specific neurotoxin N-methyl-4-phenyl-1,2,3,6-tetrahydropyridine (MPTP hydrochloride, calculated as 34 mg/kg free base), dissolved in saline at a concentration of 3.4 mg/ml free base once daily on days one to five. […]
Blinded analysis of TH fiber density in the central striatum was performed at 630× magnification. […] The percentage of sample field covered by TH positive processes and terminals was calculated using an image analysis program (“Simple,” Compix Inc., Pittsburgh, Pa.). The mean striatal innervation density was calculated for each group. The magnitude of striatal deafferentation due to the MPTP lesion was assessed by dividing the observed striatal innervation values obtained in MPTP/vehicle treated cases by the mean striatal innervation density in the Vehicle/Vehicle group and expressed as % loss. […]

T1 sequence (P14740 37-767 limits assumed): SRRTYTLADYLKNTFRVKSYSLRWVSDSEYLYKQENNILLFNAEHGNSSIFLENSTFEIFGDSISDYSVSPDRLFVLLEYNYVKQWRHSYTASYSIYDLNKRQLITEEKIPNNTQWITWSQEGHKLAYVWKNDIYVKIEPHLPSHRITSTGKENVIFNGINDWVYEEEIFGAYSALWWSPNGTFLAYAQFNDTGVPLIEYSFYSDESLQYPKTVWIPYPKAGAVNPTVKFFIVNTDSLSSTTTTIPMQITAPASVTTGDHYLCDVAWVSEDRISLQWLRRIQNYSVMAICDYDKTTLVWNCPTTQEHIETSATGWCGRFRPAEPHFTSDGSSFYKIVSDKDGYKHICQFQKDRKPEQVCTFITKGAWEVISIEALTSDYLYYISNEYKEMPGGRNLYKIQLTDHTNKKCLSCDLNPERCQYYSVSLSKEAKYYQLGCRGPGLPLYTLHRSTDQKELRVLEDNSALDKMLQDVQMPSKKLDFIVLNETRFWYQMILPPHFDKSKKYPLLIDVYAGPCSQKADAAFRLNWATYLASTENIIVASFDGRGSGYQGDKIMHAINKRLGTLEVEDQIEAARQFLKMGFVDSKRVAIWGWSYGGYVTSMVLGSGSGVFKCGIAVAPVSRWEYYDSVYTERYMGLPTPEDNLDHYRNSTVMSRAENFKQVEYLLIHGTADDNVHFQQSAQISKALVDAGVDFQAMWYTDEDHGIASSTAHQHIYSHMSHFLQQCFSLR

SMILES | IC50 (DPP IV) [nM] | % protection of striatal tyrosine hydroxylase-immunoreactive fibres [1] [%]
N#C[C@@H]1CC(F)CN1C(=O)C(N)C1CCCCC1 (some centres unmarked) [Example 14, 2-Cyano-4-fluoro-1-cyclohexylglycylpyrrolidine hydrogen chloride] | 6.5 | –
CCC(C)[C@H](N)C(=O)N1CC(F)C[C@H]1C#N (some centres unmarked) [Example 13, 2-cyano-4-fluoro-1-(sec-butyl)glycylpyrrolidine hydrogen chloride] | 6.2 | –
N#CC1CSCN1C(=O)C1CC2CCCCC2N1 (centres unmarked) [Example 5, 3-(octahydroindole-2-carbonyl)thiazolidine4-carbonitrile hydrochloride] | 3.8 | –
Cl.N#CC1CCN1C(=O)C1CC2CCCCC2N1 (centres unmarked) [Example 20, 1-(octahydroindole-2-carbonyl)azetidine-2-carbonitrile hydrochloride] | 178 | 32.6
N#C[C@@H]1CCCN1C(=O)[C@H]1NCC2CCCCC21 (some centres unmarked) [Example 4, 2-(L)-Cyano-(octahydro-isoindolyl)pyrrolidine hydrogen chloride] | 551 | –
N#CC1CC(F)CN1C(=O)C1CC2CCCCC2N1 (centres unmarked) [Example 3, 2-cyano-4-fluoro-1-(octahydroindole-2-carbonyl)-pyrrolidine hydrogen chloride] | 1.65 | –
Cl.N#CC1CCCN1C(=O)C1CC2CCCCC2N1 (centres unmarked) [Example 1, 1-(octahydroindole-2-carbonyl)pyrrolidine-2-carbonitrile hydrochloride] | 13.9 | 32.5
N#CC1CCN1C(=O)CNC12CC3CC(CC(C3)C1)C2 (centres unmarked) [Example 18, 1-[2-(adamant-1-ylamino)acetyl]-azetidine-2-carbonitrile] | 223 | –
N[C@H](C(=O)N1CC=CC1)C1CCCCC1 [Example 6, 1-(L-α-cyclohexylglycyl)-3-pyrroline hydrogen chloride] | 1880 | –
O=C(C1CC2CCCCC2N1)N1CCCC1 (centres unmarked) [Example 10, 1-(octahydroindole-2-carbonyl)pyrrolidine hydrochloride] | 10000 | –
N[C@H](C(=O)N1CCCCC1)C1CCCCC1 [Example 8, 1-(L-α-cyclohexylglycyl)piperidine hydrogen chloride] | 22200 | –
N#CC1CCN1C(=O)C1CCCN1 (centres unmarked) [Example 17, 1-(pyrrolidine-2-carbonyl)azetidine-2-carbonitrile] | 1100 | –
N#CC1CCCN1C(=O)C1NCC2CC21 (centres unmarked) [Example 2, 1-(3-azabicyclo[3.1.0]hexane-2-carbonyl)pyrrolidine-2-carbonitrile hydrochloride] | 60.7 | –
O=C(CNC12CC3CC(CC(C3)C1)C2)N1CCSC1 [Example 12, 1-[2-(adamant-1-ylamino)acetyl]-3-thiopyrrolidine] | 4820 | –
N#CC1CCN1C(=O)C(N)C1CCCCC1 (centres unmarked) [Example 16, 1-(2-amino-2-cyclohexyl-acetyl)azetidine-2-carbonitrile] | 1200 | –
